Results published in ChEMBL document CHEMBL4507299, “Data for DCP probe PF-04554878” (2021).

Key:
[1] = target: Tyrosine-protein kinase receptor Tie-1 (Homo sapiens) (UniProt P35590)
[2] = target: Tyrosine-protein kinase ITK/TSK (Homo sapiens) (UniProt Q08881)
[3] = target: Microtubule-associated serine/threonine-protein kinase 1 (Homo sapiens) (UniProt Q9Y2H9)
[4] = target: Mitogen-activated protein kinase kinase kinase 19 (Homo sapiens) (UniProt Q56UN5)
[5] = target: Activin receptor type-2B (Homo sapiens) (UniProt Q13705)
[6] = target: Mitogen-activated protein kinase 15 (Homo sapiens) (UniProt Q8TD08)
[7] = target: Mitogen-activated protein kinase kinase kinase kinase 5 (Homo sapiens) (UniProt Q9Y4K4)
Chain of Mitogen-activated protein kinase kinase kinase kinase 5 (Homo sapiens) (Q9Y4K4 whole entry, looked up): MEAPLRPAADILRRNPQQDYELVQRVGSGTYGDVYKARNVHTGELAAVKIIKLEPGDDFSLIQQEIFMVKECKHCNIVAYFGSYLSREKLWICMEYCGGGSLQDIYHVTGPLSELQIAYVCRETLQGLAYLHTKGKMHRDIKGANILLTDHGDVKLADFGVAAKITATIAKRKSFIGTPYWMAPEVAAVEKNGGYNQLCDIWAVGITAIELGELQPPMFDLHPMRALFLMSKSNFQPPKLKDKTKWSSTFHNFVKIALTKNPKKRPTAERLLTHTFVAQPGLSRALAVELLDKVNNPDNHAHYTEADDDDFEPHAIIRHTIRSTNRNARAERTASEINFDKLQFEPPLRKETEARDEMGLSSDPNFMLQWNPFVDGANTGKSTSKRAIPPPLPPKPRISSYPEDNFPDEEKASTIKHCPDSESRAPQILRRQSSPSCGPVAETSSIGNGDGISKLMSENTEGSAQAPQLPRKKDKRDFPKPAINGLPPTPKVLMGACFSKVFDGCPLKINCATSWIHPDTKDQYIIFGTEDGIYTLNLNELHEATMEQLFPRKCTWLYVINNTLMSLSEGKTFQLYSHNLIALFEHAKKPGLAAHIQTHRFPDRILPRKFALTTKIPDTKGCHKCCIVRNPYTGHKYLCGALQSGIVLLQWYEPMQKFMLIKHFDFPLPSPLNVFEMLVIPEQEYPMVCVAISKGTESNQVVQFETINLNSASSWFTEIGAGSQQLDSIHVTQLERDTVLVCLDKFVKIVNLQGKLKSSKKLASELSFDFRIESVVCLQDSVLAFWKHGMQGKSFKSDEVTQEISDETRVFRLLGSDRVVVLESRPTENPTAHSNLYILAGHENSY

[8] = target: 3-phosphoinositide-dependent protein kinase 1 (Homo sapiens) (UniProt O15530)
[9] = target: TGF-beta receptor type-1 (Homo sapiens) (UniProt P36897)
Chain of TGF-beta receptor type-1 (Homo sapiens) (P36897 whole entry): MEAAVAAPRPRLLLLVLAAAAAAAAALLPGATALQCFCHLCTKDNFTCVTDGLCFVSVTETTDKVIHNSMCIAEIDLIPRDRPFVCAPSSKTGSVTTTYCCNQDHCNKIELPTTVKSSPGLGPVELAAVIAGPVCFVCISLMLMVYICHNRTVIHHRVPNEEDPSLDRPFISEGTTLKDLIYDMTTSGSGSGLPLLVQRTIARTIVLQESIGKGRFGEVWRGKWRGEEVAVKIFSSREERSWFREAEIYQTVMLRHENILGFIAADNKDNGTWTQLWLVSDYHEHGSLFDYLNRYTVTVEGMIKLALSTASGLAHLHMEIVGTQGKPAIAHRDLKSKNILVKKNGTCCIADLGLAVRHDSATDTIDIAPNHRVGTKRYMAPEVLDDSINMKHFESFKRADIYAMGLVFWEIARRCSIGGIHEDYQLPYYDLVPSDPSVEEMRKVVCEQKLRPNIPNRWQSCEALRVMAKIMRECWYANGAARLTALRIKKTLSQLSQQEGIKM

[10] = target: T1, Serine/threonine-protein kinase Sgk1 (Homo sapiens) (UniProt O00141)
T1 sequence (whole entry): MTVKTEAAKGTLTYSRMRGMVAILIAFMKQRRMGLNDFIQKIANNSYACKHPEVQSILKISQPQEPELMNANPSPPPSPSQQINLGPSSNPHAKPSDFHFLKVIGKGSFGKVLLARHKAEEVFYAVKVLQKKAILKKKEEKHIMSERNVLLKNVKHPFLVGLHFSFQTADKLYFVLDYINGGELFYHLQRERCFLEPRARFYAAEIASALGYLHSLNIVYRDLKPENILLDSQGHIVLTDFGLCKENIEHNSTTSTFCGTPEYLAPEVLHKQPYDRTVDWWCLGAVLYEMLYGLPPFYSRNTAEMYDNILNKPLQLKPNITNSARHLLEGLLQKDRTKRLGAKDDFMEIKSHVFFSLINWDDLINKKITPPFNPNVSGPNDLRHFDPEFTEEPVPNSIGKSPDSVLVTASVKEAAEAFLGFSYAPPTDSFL

[11] = target: Serine/threonine-protein kinase 25 (Homo sapiens) (UniProt O00506)
[12] = test system: Epidermal growth factor receptor (Homo sapiens), P00533 [L861Q]
[13] = target: Sodium-dependent noradrenaline transporter (Homo sapiens) (UniProt P23975); details: Compound concentration 10.0 uM
[14] = target: Casein kinase I isoform epsilon (Homo sapiens) (UniProt P49674)
[15] = target: Cyclin-G-associated kinase (Homo sapiens) (UniProt O14976)
Chain of Cyclin-G-associated kinase (Homo sapiens) (O14976 whole entry): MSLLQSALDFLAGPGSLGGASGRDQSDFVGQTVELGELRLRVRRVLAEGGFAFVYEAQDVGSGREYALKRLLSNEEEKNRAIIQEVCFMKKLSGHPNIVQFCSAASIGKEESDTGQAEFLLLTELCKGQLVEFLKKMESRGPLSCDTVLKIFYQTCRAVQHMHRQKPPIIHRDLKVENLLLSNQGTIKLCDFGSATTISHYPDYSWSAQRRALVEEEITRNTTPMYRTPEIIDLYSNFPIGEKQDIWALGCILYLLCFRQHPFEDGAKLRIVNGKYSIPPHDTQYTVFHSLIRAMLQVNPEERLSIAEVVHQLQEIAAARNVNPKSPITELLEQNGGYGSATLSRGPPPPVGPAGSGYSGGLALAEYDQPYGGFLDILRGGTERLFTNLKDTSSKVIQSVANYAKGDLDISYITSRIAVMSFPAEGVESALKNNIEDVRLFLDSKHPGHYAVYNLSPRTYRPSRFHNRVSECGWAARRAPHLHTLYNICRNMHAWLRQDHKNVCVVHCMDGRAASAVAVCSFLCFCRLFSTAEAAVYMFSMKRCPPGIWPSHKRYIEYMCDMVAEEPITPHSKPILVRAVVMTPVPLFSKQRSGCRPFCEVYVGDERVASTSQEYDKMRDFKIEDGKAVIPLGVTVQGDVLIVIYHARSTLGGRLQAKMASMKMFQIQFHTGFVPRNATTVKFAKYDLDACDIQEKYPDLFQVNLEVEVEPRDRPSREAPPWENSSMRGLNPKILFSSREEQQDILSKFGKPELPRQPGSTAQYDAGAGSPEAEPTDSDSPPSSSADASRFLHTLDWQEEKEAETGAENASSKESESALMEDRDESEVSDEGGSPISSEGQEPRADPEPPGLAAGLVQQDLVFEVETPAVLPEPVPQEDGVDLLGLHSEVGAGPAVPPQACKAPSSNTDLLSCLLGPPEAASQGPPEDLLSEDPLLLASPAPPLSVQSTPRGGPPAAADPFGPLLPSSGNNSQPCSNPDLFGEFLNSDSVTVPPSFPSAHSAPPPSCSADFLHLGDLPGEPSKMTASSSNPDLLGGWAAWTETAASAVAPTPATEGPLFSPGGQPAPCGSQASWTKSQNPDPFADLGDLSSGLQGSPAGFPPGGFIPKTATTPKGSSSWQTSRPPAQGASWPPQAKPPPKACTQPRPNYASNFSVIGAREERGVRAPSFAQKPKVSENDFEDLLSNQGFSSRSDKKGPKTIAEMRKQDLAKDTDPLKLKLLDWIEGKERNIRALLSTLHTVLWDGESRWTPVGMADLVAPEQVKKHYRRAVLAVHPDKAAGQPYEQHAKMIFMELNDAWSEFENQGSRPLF

[16] = target: Atypical kinase COQ8B, mitochondrial (Homo sapiens) (UniProt Q96D53)
Chain of Atypical kinase COQ8B, mitochondrial (Homo sapiens) (Q96D53 whole entry): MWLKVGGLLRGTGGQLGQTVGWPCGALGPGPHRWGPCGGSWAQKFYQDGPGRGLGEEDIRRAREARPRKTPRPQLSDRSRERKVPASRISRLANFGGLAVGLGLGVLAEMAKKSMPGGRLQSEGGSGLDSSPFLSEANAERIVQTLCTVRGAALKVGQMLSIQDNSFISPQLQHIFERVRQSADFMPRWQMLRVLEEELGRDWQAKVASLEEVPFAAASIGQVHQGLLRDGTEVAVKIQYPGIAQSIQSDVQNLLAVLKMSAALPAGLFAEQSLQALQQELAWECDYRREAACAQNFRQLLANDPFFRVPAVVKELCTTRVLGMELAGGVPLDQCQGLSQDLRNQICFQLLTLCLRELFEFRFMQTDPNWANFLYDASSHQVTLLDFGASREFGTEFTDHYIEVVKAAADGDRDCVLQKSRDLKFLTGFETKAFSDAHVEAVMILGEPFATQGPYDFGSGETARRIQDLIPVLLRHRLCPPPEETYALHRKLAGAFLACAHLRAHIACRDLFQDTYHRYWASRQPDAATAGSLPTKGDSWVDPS

[17] = target: Serine/threonine-protein kinase VRK2 (Homo sapiens) (UniProt Q86Y07)
[18] = target: Cyclin-dependent kinase 3 (Homo sapiens) (UniProt Q00526)
[19] = target: Cyclin-dependent kinase 16 (Homo sapiens) (UniProt Q00536)
Chain of Cyclin-dependent kinase 16 (Homo sapiens) (Q00536 whole entry): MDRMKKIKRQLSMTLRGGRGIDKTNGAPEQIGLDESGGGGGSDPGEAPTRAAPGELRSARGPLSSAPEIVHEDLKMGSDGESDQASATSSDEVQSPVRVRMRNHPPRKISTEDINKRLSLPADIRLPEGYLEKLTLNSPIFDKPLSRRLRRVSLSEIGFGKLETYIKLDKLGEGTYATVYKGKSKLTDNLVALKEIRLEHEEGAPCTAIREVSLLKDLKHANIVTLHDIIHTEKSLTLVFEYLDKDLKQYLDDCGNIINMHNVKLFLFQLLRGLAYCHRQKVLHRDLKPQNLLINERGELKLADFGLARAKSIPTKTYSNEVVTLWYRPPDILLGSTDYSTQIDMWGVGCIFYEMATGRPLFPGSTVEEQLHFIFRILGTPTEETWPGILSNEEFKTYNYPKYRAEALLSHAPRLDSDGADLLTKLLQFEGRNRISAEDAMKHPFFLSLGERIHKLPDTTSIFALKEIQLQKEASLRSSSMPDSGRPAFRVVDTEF

[20] = target: Ribosomal protein S6 kinase alpha-3 (Homo sapiens) (UniProt P51812)
[21] = test system: Tyrosine-protein kinase ABL1 (Homo sapiens), P00519 [Y253F]
[22] = test system: Phosphatidylinositol 4,5-bisphosphate 3-kinase catalytic subunit alpha isoform (Homo sapiens), P42336 [E545A]
[23] = target: Tyrosine-protein kinase Fer (Homo sapiens) (UniProt P16591)
[24] = target: Myosin light chain kinase (Homo sapiens) (UniProt Q32MK0)
[25] = target: Serine/threonine-protein kinase SIK3 (Homo sapiens) (UniProt Q9Y2K2)
[26] = target: Activin receptor type-1 (Homo sapiens) (UniProt Q04771)
[27] = target: Serine/threonine-protein kinase LATS1 (Homo sapiens) (UniProt O95835)
[28] = target: Dual specificity tyrosine-phosphorylation-regulated kinase 1A (Homo sapiens) (UniProt Q13627)
[29] = target: Serine/threonine-protein kinase NLK (Homo sapiens) (UniProt Q9UBE8)
[30] = target: Tyrosine-protein kinase SYK (Homo sapiens) (UniProt P43405)
[31] = test system: Receptor-type tyrosine-protein kinase FLT3 (Homo sapiens), P36888 [D835H]
[32] = target: Calcium/calmodulin-dependent protein kinase type 1 (Homo sapiens) (UniProt Q14012)
Chain of Calcium/calmodulin-dependent protein kinase type 1 (Homo sapiens) (Q14012 whole entry, looked up): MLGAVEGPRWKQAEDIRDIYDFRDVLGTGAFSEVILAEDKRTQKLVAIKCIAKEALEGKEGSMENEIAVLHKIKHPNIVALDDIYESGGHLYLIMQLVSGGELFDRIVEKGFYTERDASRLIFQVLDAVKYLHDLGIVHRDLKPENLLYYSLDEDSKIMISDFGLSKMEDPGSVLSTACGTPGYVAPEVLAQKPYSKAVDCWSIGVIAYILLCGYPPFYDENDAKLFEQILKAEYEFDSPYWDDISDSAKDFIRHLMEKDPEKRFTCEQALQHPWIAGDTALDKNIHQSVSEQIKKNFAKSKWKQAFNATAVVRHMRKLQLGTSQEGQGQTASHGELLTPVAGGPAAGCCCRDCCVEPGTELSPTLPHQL

[33] = target: Serine/threonine-protein kinase 38-like (Homo sapiens) (UniProt Q9Y2H1)
[34] = target: Serine/threonine-protein kinase pim-1 (Homo sapiens) (UniProt P11309)
Chain of Serine/threonine-protein kinase pim-1 (Homo sapiens) (P11309 whole entry, looked up): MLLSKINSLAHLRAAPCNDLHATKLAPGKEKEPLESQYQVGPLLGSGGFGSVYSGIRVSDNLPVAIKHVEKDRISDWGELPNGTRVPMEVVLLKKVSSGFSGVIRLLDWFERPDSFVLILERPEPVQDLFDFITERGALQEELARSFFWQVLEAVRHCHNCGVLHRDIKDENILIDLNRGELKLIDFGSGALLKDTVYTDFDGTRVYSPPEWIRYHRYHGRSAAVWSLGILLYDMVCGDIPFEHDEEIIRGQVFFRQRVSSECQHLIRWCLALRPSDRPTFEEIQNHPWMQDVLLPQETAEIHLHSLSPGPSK

[35] = target: 5-hydroxytryptamine receptor 1B (Homo sapiens) (UniProt P28222); details: Compound concentration 10.0 uM
[36] = target: Leukocyte tyrosine kinase receptor (Homo sapiens) (UniProt P29376)
[37] = test system: Receptor-type tyrosine-protein kinase FLT3 (Homo sapiens), P36888 [UNDEFINED MUTATION]
[38] = Compound concentration 100.0 nM
[39] = Compound concentration 1000.0 nM

Chain of Tyrosine-protein kinase ITK/TSK (Homo sapiens) (Q08881 whole entry): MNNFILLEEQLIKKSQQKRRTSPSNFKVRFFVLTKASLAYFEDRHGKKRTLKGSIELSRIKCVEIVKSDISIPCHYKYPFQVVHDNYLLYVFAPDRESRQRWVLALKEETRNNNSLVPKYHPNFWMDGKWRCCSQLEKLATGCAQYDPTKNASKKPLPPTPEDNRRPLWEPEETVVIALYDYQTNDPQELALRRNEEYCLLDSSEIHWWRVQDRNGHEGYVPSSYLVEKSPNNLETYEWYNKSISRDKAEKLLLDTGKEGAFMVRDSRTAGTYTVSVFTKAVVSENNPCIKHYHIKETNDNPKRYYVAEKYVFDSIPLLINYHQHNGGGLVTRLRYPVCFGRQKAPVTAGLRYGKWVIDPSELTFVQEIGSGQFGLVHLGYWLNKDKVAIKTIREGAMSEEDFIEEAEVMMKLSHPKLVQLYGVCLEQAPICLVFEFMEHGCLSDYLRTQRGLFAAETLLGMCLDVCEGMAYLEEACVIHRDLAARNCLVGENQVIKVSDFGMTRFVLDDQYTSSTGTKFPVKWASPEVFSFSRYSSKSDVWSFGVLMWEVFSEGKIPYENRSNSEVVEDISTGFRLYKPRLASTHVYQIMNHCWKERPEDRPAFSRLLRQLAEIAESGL

CNC(=O)c1ccc(Nc2ncc(C(F)(F)F)c(NCc3nccnc3N(C)S(C)(=O)=O)n2)cc1 [DEFACTINIB] was tested, and the residual activity [1, 38] was 47%, the residual activity [2, 38] was 80% and the residual activity [3, 38] was 100%. The residual activity [4, 38] was 1.7%, the residual activity [5, 38] was 100% and the residual activity [6, 38] was 40%. For the same compound, the residual activity [7, 38] was 100%, the residual activity [8, 38] was 81% and the residual activity [9, 38] was 87%. It also gave a residual activity [10, 38] of 56%, a residual activity [11, 38] of 85% and a residual activity [12, 38] of 100%. It also gave an inhibition [13] of 7.81%, a residual activity [14, 38] of 100% and a residual activity [15, 38] of 69%. For the same compound, the residual activity [16, 38] was 88%, the residual activity [17, 38] was 85% and the residual activity [18, 38] was 100%. For the same compound, the residual activity [19, 38] was 99%, the residual activity [20, 38] was 82% and the residual activity [21, 38] was 100%. The residual activity [22, 38] was 98%, the residual activity [23, 38] was 83% and the residual activity [24, 38] was 100%. It also gave a residual activity [25, 38] of 82%, a residual activity [26, 38] of 100% and a residual activity [27, 38] of 96%. For the same compound, the residual activity [28, 38] was 71%, the residual activity [29, 38] was 100% and the residual activity [30, 38] was 66%. The residual activity [31, 38] was 9.8%, the residual activity [32, 38] was 100% and the residual activity [33, 38] was 73%. It also gave a residual activity [34, 38] of 93%, an inhibition [35] of 12.5% and a residual activity [36, 38] of 89%. It also gave a residual activity [37, 38] of 9%.

Compound CN(c1ccnc(CNc2nc(Nc3ccc4c(c3)CC(=O)N4)ncc2C(F)(F)F)n1)S(C)(=O)=O [PF-00911705] has a residual activity [1, 39] of 17%, a residual activity [2, 39] of 93% and a residual activity [3, 39] of 69%. It also gave a residual activity [4, 39] of 0.4%, a residual activity [5, 39] of 73% and a residual activity [6, 39] of 4.8%. It also gave a residual activity [7, 39] of 72%, a residual activity [8, 39] of 54% and a residual activity [9, 39] of 44%. The residual activity [10, 39] was 66%, the residual activity [11, 39] was 82% and the residual activity [12, 39] was 70%. It also gave an inhibition [13] of 3.15%, a residual activity [14, 39] of 100% and a residual activity [15, 39] of 66%. The residual activity [16, 39] was 84%, the residual activity [17, 39] was 78% and the residual activity [18, 39] was 90%. It also gave a residual activity [19, 39] of 82%, a residual activity [20, 39] of 25% and a residual activity [21, 39] of 45%. The residual activity [22, 39] was 90%, the residual activity [23, 39] was 78% and the residual activity [24, 39] was 100%. The residual activity [25, 39] was 82%, the residual activity [26, 39] was 91% and the residual activity [27, 39] was 51%. The residual activity [28, 39] was 19%, the residual activity [29, 39] was 98% and the residual activity [30, 39] was 5.7%. It also gave a residual activity [31, 39] of 15%, a residual activity [32, 39] of 72% and a residual activity [33, 39] of 75%. For the same compound, the residual activity [34, 39] was 79%, the inhibition [35] was 5.78% and the residual activity [36, 39] was 100%. It also gave a residual activity [37, 39] of 0%.
